Test results from patent US11078166B2, “Triazole conjugated ureas, thioureas, carbamates, and reversed carbamates for PSMA-targeted imaging agents and uses thereof” (THE JOHNS HOPKINS UNIVERSITY, priority 2015, dated 2021).
“Also recorded” adds a separate entry of the source. Where two headings read alike, the source gives them in different places. Values belong to the molecule of their own block, whether it stands above or below them.

Key:
PSMA [1] = target: T1, PSMA (Homo sapiens, UniProt Q04609); settings: from Chen et al. 2008 and 2011; read-out: Ki value, PSMA (for comparison); cited from earlier work
T1 construct: endogenous in cells; host or cells: LNCaP cell lysate

PSMA [2] = target: T1, PSMA; assay: NAALADase assay (fluorescence-based Amplex Red glutamic acid assay), PSMA inhibition; type: biochemical; settings: for Ki: LNCaP cell lysates, 4 μM NAAG, Cheng-Prusoff conversion
Method: NAALADase Assay (Kozikowski et al., J. Med. Chem. 2004). The binding affinities of compounds YC-88, YC-71 and YC-XY-01 were tested with an established protocol. Briefly, cell lysates of Lymph Node Carcinoma of the Prostate (LNCaP) cell extracts (25 μL) were incubated with the inhibitor (12.5 μL) in the presence of 4 μM N-acetylaspartylglutamate (NAAG) (12.5 μL) at 37° C. for 120 min. The amount of the glutamate released by NAAG hydrolysis was measured by incubating with a working solution (50 μL) of the Amplex Red Glutamic Acid Kit (Life Technologies, Grand Island, N.Y.) at 37° C. for 60 min. Fluorescence was measured with a VICTOR^3V multilabel plate reader (Perkin Elmer Inc., Waltham, Mass.) with excitation at 490 nm and emission at 642 nm. Inhibition curves were determined using semi-log plots and IC50 values were determined at the concentration at which enzyme activity was inhibited by 50%. Assays were performed in triplicate with the entire inhibition study being repeated at least once to confirm affinity and mode of inhibition. Enzyme inhibitory constants (Ki values) were generated using the Cheng-Prusoff conversion. […]. Data analysis was performed using GraphPad Prism version 4.00 for Windows (GraphPad Software, San Diego, Calif.).
PSMA Inhibition Assay. The PSMA binding affinity of YC-88 were determined using a modification of the Amplex Red glutamic acid assay (Chen et al., Biochem. Biophys. Res. Commun. 2009).

[3] = Radiation dosimetry: kidney biological clearance half-life and AUC from % ID/g data; type: in vivo, NOD-SCID mice; settings: for AUC in kidneys / Biological half-life in kidneys: single exponential fit of kidney % ID/g
Excerpt: Radiation Dosimetry. […] The simulation analysis and modeling software package SAAM II (The Epsilon Group, Charlottesville, Va.) was used to perform the fits.

[4] = Lipophilicity, octanol-water partition coefficient by shake-flask method; type: physicochemical; settings: pH 7.4
Method: Lipophilicity Determination. Octanol-water partition coefficients [log P (pH 7.4) values] were determined according to a literature procedure (Banerjee et al., J. Med. Chem. 2010). […] After vigorously shaking the mixture, it was centrifuged at 3,000 rpm for 5 min. Aliquots were removed from the two phases, and the radioactivity was measured in a 1282 Compugamma CS γ-counter, (LKB, Wallac, Turku, Finland).
Lipophilicity. Octanol-water partition coefficient (log P) values were measured by the shake-flask method using 1-octanol and PBS (pH 7.4). The log P of [^18F]YC-88 at pH 7.4 was −3.91.

T1 sequence (Q04609 whole entry): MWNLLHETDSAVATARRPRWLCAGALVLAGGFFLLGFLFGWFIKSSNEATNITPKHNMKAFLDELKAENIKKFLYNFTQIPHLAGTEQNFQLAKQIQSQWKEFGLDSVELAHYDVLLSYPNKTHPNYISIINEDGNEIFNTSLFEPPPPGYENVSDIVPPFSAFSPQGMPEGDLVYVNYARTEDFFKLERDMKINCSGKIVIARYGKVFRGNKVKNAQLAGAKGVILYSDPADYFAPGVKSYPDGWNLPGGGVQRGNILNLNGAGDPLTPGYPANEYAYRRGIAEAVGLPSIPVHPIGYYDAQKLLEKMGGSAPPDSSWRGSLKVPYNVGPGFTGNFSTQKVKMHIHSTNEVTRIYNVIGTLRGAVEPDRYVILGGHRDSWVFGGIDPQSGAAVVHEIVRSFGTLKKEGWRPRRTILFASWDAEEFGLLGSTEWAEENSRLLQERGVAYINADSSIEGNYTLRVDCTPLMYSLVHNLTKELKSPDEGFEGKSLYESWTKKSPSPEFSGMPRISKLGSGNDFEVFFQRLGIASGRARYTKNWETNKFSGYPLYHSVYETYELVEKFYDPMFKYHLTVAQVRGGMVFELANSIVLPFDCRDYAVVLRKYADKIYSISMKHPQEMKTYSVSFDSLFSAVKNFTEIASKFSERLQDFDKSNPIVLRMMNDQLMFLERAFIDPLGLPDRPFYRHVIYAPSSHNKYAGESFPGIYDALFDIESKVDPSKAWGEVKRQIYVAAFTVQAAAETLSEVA

SMILES: O=C(O)CC[C@H](NC(=O)N[C@@H](CSCc1ccc(F)cc1)C(=O)O)C(=O)O [DCFBC]
Ki (PSMA [1]): 0.44 nM

SMILES: O=C(O)CCC(NC(=O)NC(CCCCNC(=O)c1ccc(F)cc1)C(=O)O)C(=O)O (stereo not shown) [DCFBzL]
Ki (PSMA [1]): 0.19 nM

Binding affinity to PSMA (in words) (PSMA [2]): high binding affinity to PSMA
Ki (PSMA [2]): 0.6 nM
SMILES: O=C(O)CCC(NC(=O)NC(CCCCNC(=O)CCCCCCC(=O)NC(CCCCNC(=O)CCc1cn(CCF)nn1)C(=O)O)C(=O)O)C(=O)O (stereo not shown) [YC-71]

Ki (PSMA [2]): 12.9 nM
SMILES: O=C(O)CCC(NC(=O)NC(CCCCNC(=O)CCc1cn(CCF)nn1)C(=O)O)C(=O)O (stereo not shown) [YC-88, 2-[3-(1-Carboxy-5-{3-[1-(2-fluoroethyl)-1H-1,2,3-triazol-yl]propanamido}pentyl)ureido]pentanedioic Acid]
Binding affinity to PSMA (in words) (PSMA [2]): high affinity for PSMA; also recorded: high binding affinity to PSMA

Binding affinity to PSMA (in words) (PSMA [2]): high binding affinity to PSMA
Ki (PSMA [2]): 473 nM
SMILES: O=C(O)CC[C@H](OC(=O)N[C@@H](CCCCNC(=O)CCc1cn(CCF)nn1)C(=O)O)C(=O)O [YC-XY-01, (S)-2-((((S)-1-carboxy-5-(3-(1-(2-fluoroethyl)-1H-1,2,3-triazol-4-yl)propanamido)pentyl)carbamoyl)oxy)pentanedioic acid]

AUC in kidneys [3]: 340.74 % ID/g-h
Biological half-life in kidneys [3]: 1.20 h
log P (octanol-water partition coefficient) ([4]; 1-octanol and PBS): −3.27
SMILES: O=C(O)CCC(NC(=O)NC(CCCCNC(=O)c1ccc([18F])nc1)C(=O)O)C(=O)O (stereo not shown) [[^18F]DCFPyL, 2-(3-{1-carboxy-5-[(6-[^18F]fluoropyridine-3-carbonyl)-amino]-pentyl}-ureido)-pentanedioic acid, reference compound]

AUC ratio (agent/YC-88) in kidneys ([3]; mouse, in vivo): 1
Kidney absorbed dose, decrease compared to [^18F]DCFPyL ([3]; mouse, in vivo): ~5 fold
AUC in kidneys [3]: 70.7 % ID/g-h
Biological half-life in kidneys [3]: 1.52 h
logP [4]: -3.91
SMILES: O=C(O)CC[C@H](NC(=O)N[C@@H](CCCCNC(=O)CCc1cn(CC[18F])nn1)C(=O)O)C(=O)O [[^18F]YC-88, 2-[3-(1-carboxy-5-{3-[1-(2-[^18F]fluoroethyl)-1H-1,2,3-triazol-yl]propanamido}pentyl)ureido]-pentanedioic acid]
